# US20250099420A1, “SMALL MOLECULE MODULATORS OF GPR139 COMPLEX” (University of Florida Research Foundation, Incorporated, priority 2022, published 2025)
# Read-outs that look alike come from different tables or passages of the source.
# Key:
# parental HEK cells = experiment: HEK parental Agonist Counterscreen Assay (non-transfected cells); assay type: cell-based; conditions: for Averaged Max % Response (±St. Dev.): activity relative to known control
# Description: The high control for the agonist counterscreen was Forskolin not acetylcholine.
# GPR139 = target: T1, GPR139 (Homo sapiens, UniProt Q6DWJ6); experiment: GPR139 Agonist titration / agonist counterscreen assay (calcium detection, HEK-GPR139 cells); assay type: cell-based; parameters: expressed in transfected cells; host or cells: HEK Aequorin cells, Maxcyte transient transfection; conditions: GPR139 Agonist Activity; for EC50: read-out: EC50; for Averaged Max % Response (±St. Dev.): activity relative to known control
# T1 sequence (Q6DWJ6 1-353): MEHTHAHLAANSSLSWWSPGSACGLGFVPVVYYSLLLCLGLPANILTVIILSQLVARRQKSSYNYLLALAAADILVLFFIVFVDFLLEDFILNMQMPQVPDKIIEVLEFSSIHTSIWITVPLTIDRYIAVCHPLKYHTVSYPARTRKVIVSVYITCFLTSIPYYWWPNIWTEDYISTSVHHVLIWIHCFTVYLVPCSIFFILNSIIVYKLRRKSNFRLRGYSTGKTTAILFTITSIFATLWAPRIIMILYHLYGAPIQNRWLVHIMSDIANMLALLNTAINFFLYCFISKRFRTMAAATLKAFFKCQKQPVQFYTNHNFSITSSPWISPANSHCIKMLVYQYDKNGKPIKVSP
# Method: GPR activity was assessed using a calcium detection assay. […] Negative control samples were treated with DMSO. […] Intracellular calcium was measured using Calcium 5.
# [1] = Homo sapiens, HEK293, HEK Agonist Activity section of Table 4 (parental HEK counterscreen)
# [2] = HEK Agonist Activity section of Table 4 (parental HEK counterscreen)
# [3] = values printed in E-notation without unit
SMILES,Lipophilic Efficiency (logD) (parental HEK cells; HEK Agonist Activity section),Lipophilic Efficiency (logP) (parental HEK cells; HEK Agonist Activity section),Averaged Max % Response (±St. Dev.) (parental HEK cells; HEK Agonist Activity section),EC50 (parental HEK cells; [1]),Efficiency Ligand (GPR139),Hill Slope (GPR139),Lipophilic Efficiency (logD) (GPR139),Lipophilic Efficiency (logP) (GPR139),EC50 (GPR139; HEK-GPR139 cells),Averaged Max % Response (±St. Dev.) (GPR139),EC50 (parental HEK cells; [2]),Lipophilic Efficiency (logD) (GPR139; based on logD),Lipophilic Efficiency (logP) (GPR139; based on logP),Hill Slope (GPR139; fitted dose-response curve),Efficiency Ligand (GPR139; ligand efficiency),EC50 (GPR139; [3]),Lipophilic Efficiency (logD) (parental HEK cells; HEK Agonist Activity),Lipophilic Efficiency (logP) (parental HEK cells; HEK Agonist Activity),Averaged Max % Response (±St. Dev.) (parental HEK cells; HEK Agonist Activity),"EC50 (parental HEK cells; Homo sapiens, HEK293, HEK Agonist Activity, parental non-transfected HEK cells)"
CCCC1(CCC)NC(=O)N(CC(=O)NCc2ccc(Cl)cc2)C1=O [SR-01000050884],1.88,1.88,5.22 ± 1.83%,> 15400 nM,0.36,0.73,3.46,3.46,408 nM,89.45 ± 3.28%,,,,,,,,,,
CC(C)C(C)(C#N)NC(=O)CSc1nnc(Cc2cccc3ccccc23)n1N (stereo not drawn) [SR-01000052065],2.71,2.62,8.92 ± 9.62%,,,,,,,98.20 ± 7.98%,> 15200 nM,4.63,4.54,0.53,0.33,182 nM,,,,
COc1ccc(Cl)cc1C(=O)NNC(=O)CCc1ccc([N+](=O)[O-])cc1 [SR-01000054340],2.25,2.23,20.66 ± 8.49%,> 14200 nM,0.33,0.74,3.45,3.43,,96.13 ± 10.69%,,,,,,,,,,
Cc1ccc2c(CC(=O)NNC(=O)CC34CC5CC(CC(C5)C3)C4)coc2c1 [SR-01000054849],1.41,1.41,1.19 ± 3.75%,,,,,,,93.14 ± 10.62%,> 14800 nM,3.67,3.67,0.47,0.35,81.6 nM,,,,
COc1ccc2cc(C3(C)CC(=O)N(CC(=O)N(CC(C)C)CC(C)C)C3=O)ccc2c1 (stereo not drawn) [SR-01000054961],1.27,1.27,6.24 ± 6.42%,> 14100 nM,0.26,0.85,2.43,2.43,,79.59 ± 15.93%,,,,,,,,,,
COc1cc(C(=O)NNC(=O)COc2ccc3ccccc3c2)cc(OC)c1OC [SR-01000056004],2.56,2.55,−16.39 ± 11.45%,> 15100 nM,0.30,0.89,4.08,4.08,450 nM,81.95 ± 3.88%,,,,,,,,,,
COc1cc(C(C)=O)ccc1OCC(=O)OCC(=O)NCCCc1ccccc1 [SR-01000056458],2.66,2.66,19.25 ± 6.92%,> 14100 nM,,,,,,119.47 ± 9.11%,,5.10,5.10,0.52,0.35,50.9 nM,,,,
CC1(c2ccc(Cl)cc2)NC(=O)N(CC(=O)NCc2cccs2)C1=O (stereo not drawn) [SR-01000058107],,,,,,,,,,95.61 ± 13.32%,,5.35,5.35,0.85,0.43,23.3 nM,2.55,2.55,4.84 ± 7.51%,> 14900 nM
